Source: PubChem BioAssay AID2060604 (Molecular Pharmacology Branch, DTP, NCI, 2025)

System: 379773-124-R-J2-PDC complex spheroids, viability % test/control
Assay: Anticancer human tumor 379773-124-R-J2-PDC patient-derived endometrial carcinoma cell line growth inhibition [CLK]
Details: for IC50: curve of first compound; for viability, T/C: stronger effect = lower value; active = viability on the fitted dose curve at most 10% of control; inactive = the rest
Summary of the method: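 Patient-derived tumor cells grown as complex spheroids with HUVEC endothelial cells and mesenchymal stem cells, treated with drug combinations. Concentrations descend in half-log steps from near clinical Cmax, or from 10 microM if Cmax unknown.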
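Note: compound exposure lasted seven days before the viability readout.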
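Throughout, for viability, T/C: 100% = DMSO vehicle control wells.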

C=CC(=O)Nc1cc(Nc2nccc(-c3cn(C)c4ccccc34)n2)c(OC)cc1N(C)CCN(C)C + CNC(=O)c1ccc(Nc2nc(OC3CCCC3)c3c(-c4ccc5nc(C)oc5c4)c[nH]c3n2)c(OC)c1
inactive: viability, T/C (second compound 0.0316 µM, first compound 0.000949 µM) 82.7% | viability, T/C (second compound 0.0316 µM, first compound 0.003 µM) 84.2% | viability, T/C (second compound 0.0316 µM, first compound 0.00949 µM) 78.9% | viability, T/C (second compound 0.0316 µM, first compound 0.03 µM) 73% | viability, T/C (second compound 0.0316 µM, first compound 0.0949 µM) 77.6% | viability, T/C (second compound 0.0316 µM, first compound 0.3 µM) 58.1% | viability, T/C (second compound 0.1 µM, first compound 0.000949 µM) 35.2% | viability, T/C (second compound 0.1 µM, first compound 0.003 µM) 37% | viability, T/C (second compound 0.1 µM, first compound 0.00949 µM) 42.6% | viability, T/C (second compound 0.1 µM, first compound 0.03 µM) 31.2% | viability, T/C (second compound 0.1 µM, first compound 0.0949 µM) 32.5% | viability, T/C (second compound 0.1 µM, first compound 0.3 µM) 38% | viability, T/C (second compound 0.316 µM, first compound 0.000949 µM) 44.7% | viability, T/C (second compound 0.316 µM, first compound 0.003 µM) 39.9% | viability, T/C (second compound 0.316 µM, first compound 0.00949 µM) 32% | viability, T/C (second compound 0.316 µM, first compound 0.03 µM) 34.5% | viability, T/C (second compound 0.316 µM, first compound 0.0949 µM) 31.3% | viability, T/C (second compound 0.316 µM, first compound 0.3 µM) 26.2% | viability, T/C (second compound 1 µM, first compound 0.000949 µM) 45.4% | viability, T/C (second compound 1 µM, first compound 0.003 µM) 39% | viability, T/C (second compound 1 µM, first compound 0.00949 µM) 31.2% | viability, T/C (second compound 1 µM, first compound 0.03 µM) 28.8% | viability, T/C (second compound 1 µM, first compound 0.0949 µM) 26.6% | viability, T/C (second compound 1 µM, first compound 0.3 µM) 30.4% | viability, T/C (second compound 3.16 µM, first compound 0.000949 µM) 30.1% | viability, T/C (second compound 3.16 µM, first compound 0.003 µM) 37.5% | viability, T/C (second compound 3.16 µM, first compound 0.00949 µM) 32.5% | viability, T/C (second compound 3.16 µM, first compound 0.03 µM) 34.3% | viability, T/C (second compound 3.16 µM, first compound 0.0949 µM) 25.7% | viability, T/C (second compound 3.16 µM, first compound 0.3 µM) 28.2% | viability, T/C (second compound 10 µM, first compound 0.000949 µM) 30.9% | viability, T/C (second compound 10 µM, first compound 0.003 µM) 30.1% | viability, T/C (second compound 10 µM, first compound 0.00949 µM) 27.1% | viability, T/C (second compound 10 µM, first compound 0.03 µM) 35.1% | viability, T/C (second compound 10 µM, first compound 0.0949 µM) 28% | viability, T/C (second compound 10 µM, first compound 0.3 µM) 25.9%
< 0.949 nM: IC50 (second compound 0.1 µM) | IC50 (second compound 0.316 µM) | IC50 (second compound 1 µM) | IC50 (second compound 3.16 µM) | IC50 (second compound 10 µM)
> 300 nM: IC50 (second compound 0.0316 µM)

CC1(C)CCC(CN2CCN(c3ccc(C(=O)NS(=O)(=O)c4ccc(NCC5CCOCC5)c([N+](=O)[O-])c4)c(Oc4cnc5[nH]ccc5c4)c3)CC2)=C(c2ccc(Cl)cc2)C1 + CNC(=O)c1ccc(Nc2nc(OC3CCCC3)c3c(-c4ccc5nc(C)oc5c4)c[nH]c3n2)c(OC)c1
inactive: viability, T/C (second compound 0.0316 µM, first compound 0.0316 µM) 68.1% | viability, T/C (second compound 0.0316 µM, first compound 0.1 µM) 79.2% | viability, T/C (second compound 0.0316 µM, first compound 0.316 µM) 76.3% | viability, T/C (second compound 0.0316 µM, first compound 1 µM) 83.6% | viability, T/C (second compound 0.0316 µM, first compound 3.16 µM) 70.9% | viability, T/C (second compound 0.1 µM, first compound 0.0316 µM) 42.1% | viability, T/C (second compound 0.1 µM, first compound 0.1 µM) 38.5% | viability, T/C (second compound 0.1 µM, first compound 0.316 µM) 33.8% | viability, T/C (second compound 0.1 µM, first compound 1 µM) 38.1% | viability, T/C (second compound 0.1 µM, first compound 3.16 µM) 32.5% | viability, T/C (second compound 0.316 µM, first compound 0.0316 µM) 35.6% | viability, T/C (second compound 0.316 µM, first compound 0.1 µM) 33.2% | viability, T/C (second compound 0.316 µM, first compound 0.316 µM) 33.7% | viability, T/C (second compound 0.316 µM, first compound 1 µM) 44.9% | viability, T/C (second compound 0.316 µM, first compound 3.16 µM) 32% | viability, T/C (second compound 1 µM, first compound 0.0316 µM) 32% | viability, T/C (second compound 1 µM, first compound 0.1 µM) 31.9% | viability, T/C (second compound 1 µM, first compound 0.316 µM) 30.8% | viability, T/C (second compound 1 µM, first compound 1 µM) 38.6% | viability, T/C (second compound 1 µM, first compound 3.16 µM) 28.6% | viability, T/C (second compound 1 µM, first compound 10 µM) 2.29% | viability, T/C (second compound 3.16 µM, first compound 0.0316 µM) 31.2% | viability, T/C (second compound 3.16 µM, first compound 0.1 µM) 33.2% | viability, T/C (second compound 3.16 µM, first compound 0.316 µM) 42% | viability, T/C (second compound 3.16 µM, first compound 1 µM) 31.2% | viability, T/C (second compound 3.16 µM, first compound 3.16 µM) 32.7% | viability, T/C (second compound 10 µM, first compound 0.0316 µM) 30.8% | viability, T/C (second compound 10 µM, first compound 0.1 µM) 25.5% | viability, T/C (second compound 10 µM, first compound 0.316 µM) 30.7% | viability, T/C (second compound 10 µM, first compound 1 µM) 32.7% | viability, T/C (second compound 10 µM, first compound 3.16 µM) 29.3% | viability, T/C (second compound 10 µM, first compound 10 µM) 1.59%
active: viability, T/C (second compound 0.0316 µM, first compound 10 µM) 0.9% | viability, T/C (second compound 0.1 µM, first compound 10 µM) 1.18% | viability, T/C (second compound 0.316 µM, first compound 10 µM) 1.34% | viability, T/C (second compound 3.16 µM, first compound 10 µM) 0.72%
< 31.6 nM: IC50 (second compound 0.1 µM) | IC50 (second compound 0.316 µM) | IC50 (second compound 1 µM) | IC50 (second compound 3.16 µM) | IC50 (second compound 10 µM)
4460 nM: IC50 (second compound 0.0316 µM)
